Experimental data from US20250250582A1, “Plant Cells and Plants Modified to Increase Herbicide Resistance and Stress Tolerance and Methods of Using the Same” (The Board of Trustees of the University of Arkansas, priority 2018, published 2025).
Where “and” joins values, the source holds several entries; their conditions need not be identical. Equal entries are not always repeated.

Tests used:
[1] = test system: multiple-resistant E. colona (ECO-R); test: Herbicide resistance profile of ECO-R; assay type: in vivo, Echinochloa colona; conditions: data not shown
Description: Beginning in 2010, through the 2016 cropping cycle, Echinochloa spp. from throughout the rice producing counties of Arkansas, USA, located along the Mississippi River were sampled for a survey of the current status of herbicide resistance. Seeds were bulk sampled from plants that had matured in rice and soybean production fields, which had survived at least one herbicide application, were collected and sent to the University of Arkansas Altheimer Laboratory in Fayetteville for characterization and evaluation of herbicide resistance to common rice herbicides. […] From this screening program, two populations of E. colona were selected for use in this experiment. […] To establish inbred and homozygous accessions for the experiment, a single plant, verified as resistant/susceptible of ECO-R and ECO-S were grown in isolation to produce seed for further experiments.
Accession source and population profiling. From 2010 to 2016, the University of Arkansas weed physiology group has been collecting putative herbicide-resistant Echinochloa populations from rice production fields throughout the state of Arkansas. […] Collections took place in the late summer to early fall prior to rice harvest; these accessions were bulk sampled by in-field location and farm, with field histories collected when possible. All of the samples were submitted to the University of Arkansas Altheimer Laboratory for assessment of their resistance profile and characterized according to their species. […] Populations with unique profiles and of interest for further research were then grown in isolation to produce pureline seed. […] Another accession, E. colona susceptible (ECO-S), was also selected and grown in isolation. This accession was selected because of its similar cropping history and geographic location, as well as its high level of susceptibility to the herbicides of interest.

[2] = test system: multiple-resistant E. colona (ECO-R); test: RNA-sequencing differential gene expression, herbicide-treated vs nontreated ECO-R; conditions: ECO-R-T vs ECO-R-N, 24 h
Description: (§1) Pure-line generated seed of each accession were germinated in pots containing potting soil within a temperature/light controlled growth chamber set to a 14-hr day length, 33 C day temperature, and 24 C night time to simulate environmental conditions early in the rice growing season. A single plant was maintained in each of the pots and used for the treatments; two pots were used as individual biological replicates. […] Pots for each of the respective treatments were labeled as either ECO-R/S-T for the treated samples and ECO-R/S-N for the non-treated counterpart. To minimize the effect that the sprayer may play in the application, both plants of the ECO-R and ECO-S were treated at the same time. After approximately 30 minutes, allowing for the plants to dry, the treated and non-treated plants of both accessions were moved back into the growth chamber. Precisely 24-hours after application, the aboveground portion of each of the plants were removed and immediately frozen in liquid nitrogen to cease all biological function. Samples were then transferred to RNAlater™-ICE (Invitrogen, Carlsbad CA, USA) for shipment to the Clemson University Genomics Institute (CUGI), in Clemson, South Carolina.
(§2) RNA was extracted from the young leaf tissues of both replications for the ECO-R and ECO-S, T and N samples, at Clemson University. Total RNA was extracted with a kit according to the manufactures instructions. The extracted RNA was treated with DNase (Invitrogen, Calsbad, CA, USA) to remove any DNA contamination prior to further processing. The samples were prepared for sequencing by CUGI. For library preparation, the TruSeq Stranded Total RNA kit (Illumina Inc., San Diego, CA, USA) was used according to the instructions provided by the manufacturer to produce a paired-end library for sequencing. Ribosomal RNA was removed using target-specific oligonucleotides paired with rRNA removal beads, removing all cytoplasmic and mitochondrial rRNA that may result in poor quality results. RNA was fragmented and reverse transcribed to cDNA using random primers, followed by a second strand cDNA synthesis. Each fragment is then ligated with an additional ‘A’ and an adapter for sequencing. The PCR enriched product is then used to create the final cDNA library. All samples were sequenced on an Illumina Hiseq 2500 platform housed in the Holdings Cancer Center at the Medical University of South Carolina, Charleston, SC, USA. Samples, regardless of treatments or replication were ran across three lanes to reduce sequencing errors from the equipment. The resulting data were processed by CUGI.
(§3) A de novo transcriptome was assembled from the treatments described for this experiment as well as several treatments, which included herbicides profiled in ECO-R. The treatments were applied to both ECO-R and ECO-S samples with two replications as described previously. In total, 20 individual plants, from both the ECO-R and ECO-S accessions, as well as T and NT samples, were used for the assembly. The transcriptome was assembled using the Trinity RNA-Seq pipeline (Broad Institute, Cambridge, MA, USA). Raw data were assessed for quality using FastQC (Babraham Institute, Cambridge, UK) and then processed to remove adapter sequences and low quality bases using a sliding window method. The processed data were then rerun using FastQC to ensure high quality reads. Using the TrinityRNASeq 2.2.0 software, the samples were normalized, by replication, using a coverage size of 100 and kmer of 32. The normalized reads were then assembled as transcripts and genes using Trinity with the stranded library set as the default.

[3] = test system: susceptible E. colona standard; test: Determination of resistance level (visual injury), susceptible plants; conditions: 2 X dose, visual 3 wk after treatment
[4] = test system: resistant Echinochloa species; test: Determination of resistance level (visual injury), resistant accessions; assay type: in vivo, E. colona and E. crus-galli; conditions: 2 X dose, visual 3 wk after treatment; propanil range excludes ECO187
Description: The experiment was repeated once.

[5] = test system: susceptible E. colona (ECO-S); test: RNA-sequencing differential gene expression, herbicide-treated vs nontreated ECO-S; conditions: ECO-S-T vs ECO-S-N, 24 h
Description: as §1, §2, §3

[6] = test system: ECO-R compared to ECO-S after herbicide treatment; test: RNA-sequencing differential gene expression, ECO-R-T compared to ECO-S-T; conditions: ECO-R-T vs ECO-S-T, 24 h
Description: as §1, §2, §3

C[C@@H](Oc1ccc(Oc2ccc(C#N)cc2F)cc1)C(=O)O [cyhalofop]
level of resistance [1]: ~2 × field dose

CP(=O)(O)CCC(N)C(=O)O (stereo not shown) [glufosinate]
level of resistance [1]: ~2 × field dose | glutamine synthetase (one form) fold change ([2]; induced): 7.5 fold | glutamine synthetase cytosolic isozyme 1-3 fold change ([2]; induced): 8.2 fold

O=C(O)c1c(Cl)ccc2cc(Cl)cnc12 [quinclorac]
susceptible plants killed [3]: 100% | injury of resistant Echinochloa species [4]: 2-65% | ABCB5 fold change [5]: −6.5 fold | ABCC10 fold change [5]: −6.1 fold | ACC oxidase 1 fold change (two forms) [5]: 2.2 fold and 2.8 fold | ACC oxidase fold change [5]: −2.8 fold | ACC oxidase homolog 3 fold change [5]: −2.2 fold | ACC synthase fold change [5]: −2.7 fold | ALPL1 fold change, five repressed transcripts [5]: −12 to −1.4 fold | EIN2 fold change [5]: 3.9 fold | RAP2-2 fold change [5]: 1.9 fold | VP14 (9-cis-epoxycarotenoid dioxygenase) fold change [5]: −6.4 fold | ALPL1 fold change, three induced transcripts ([5]; as much as): ≤ 3.5 fold | level of resistance [1]: > 32 × field dose | ABA receptor PYL5 fold change [6]: −4.4 fold | ACC synthase fold change [6]: 9 fold | Alanine aminotransferase 2 Fold Change [6]: 4 fold | Aspartate aminotransferase, chloroplastic Fold Change [6]: 4 fold | Beta-amylase 1, chloroplastic Fold Change [6]: 4 fold | Branched-chain-amino-acid aminotransferase 5, chloroplastic Fold Change [6]: 4 fold | CYP71A1 Fold Change [6]: 3 fold and 5 fold and 6 fold | CYP71A4 Fold Change [6]: 5.6 fold and 6 fold | CYP71A8 Fold Change [6]: 4 fold | CYP71A9 Fold Change [6]: −6 fold | CYP72A15 Fold Change [6]: −7 fold | CYP89A2 Fold Change [6]: −10 fold | CYP709B2 Fold Change [6]: 6 fold and 7 fold and 11 fold | Desumoylating isopeptidase 1 Fold Change [6]: 4 fold | Fructose-bisphosphate aldolase, chloroplastic Fold Change [6]: 4 fold | GSTU20 Fold Change [6]: 6 fold | Haloacid dehalogenase-like hydrolase domain-containing protein 3 Fold Change [6]: 4 fold | IAA-amino acid hydrolase ILR1-like 4 Fold Change [6]: −6 fold | Nudix hydrolase 21, chloroplastic Fold Change [6]: 3 fold and 4 fold | Probable xyloglucan endotransglucosylase/hydrolase protein 28 Fold Change [6]: −4 fold | Prolyl endopeptidase Fold Change [6]: 8 fold and 9 fold and 15 fold | Pyrimidine-specific ribonucleoside hydrolase RihA Fold Change [6]: −9 fold | Serine carboxypeptidase-like 42 Fold Change [6]: −5 fold | UGT73D1 fold change [6]: 8 fold | UGT73E1 fold change [6]: 5 fold | UGT74D1 Fold Change [6]: −4 fold | UGT75D1 fold change [6]: 8.7 fold and 9 fold | UGT88A1 Fold Change [6]: 4 fold | ABCD2 fold change [2]: −9.2 fold | ACC synthase fold change [2]: 6.3 fold | UGT73D1 fold change [2]: 5.3 fold | UGT73E1 fold change [2]: 2.6 fold | UGT75D1 fold change [2]: 7.3 fold and ~9 fold | cytochrome c oxidase proteins fold change [2]: −8.4 fold | ATP synthase subunit(s) fold change ([2]; repressed): up to −12.3 fold | acetyl-CoA and acetyl-CoA 2 proteins fold change ([2]; repressed up to): up to −10.2 fold | pyruvate dehydrogenase subunits fold change ([2]; repressed up to): ≤ −12 fold
